What was measured:
[1] = system: ConA-induced hepatitis; experiment: Preliminary pharmacological evaluation in ConA-induced hepatitis; type: in vivo, BALB/c mice
Experimental: ConA was dissolved in sterile saline (2 mg·mL^−1). The studied compounds (GRMS-55, rolipram, and BRL-50481) were dissolved in a mixture of DMSO, PEG 400, and water for injection at a ratio of 25:25:50 (v/v/v). Mice were given an IP injection of the investigated compounds or the corresponding volume of vehicle alone and, thirty minutes later, intravenously (IV) administered with ConA solution. An additional control group received vehicle alone IP instead of the studied compounds followed by IV injection of sterile saline. ConA was given at a dose of 20 mg·kg^−1. Mice were exsanguinated at several time points post-ConA injection. Blood samples were allowed to clot for 0.5 h at room temperature and then centrifuged at 3000× g for 10 min to obtain the serum, which was stored at −20 °C until further analysis.
The influence of PDE inhibitors on the levels of inflammatory mediators and transaminases in ConA-treated mice was investigated in two separate experiments. In the preliminary study, the animals were pretreated IP with GRMS-55 at a dose of 50 mg·kg^−1, the PDE4-selective inhibitor rolipram at a dose of 10 mg·kg^−1, or the PDE7-selective inhibitor BRL-50481 at a dose of 50 mg·kg^−1. Doses of the investigated compounds were chosen based on the results of previous studies. Subsequently, mice were given an IV injection of ConA and sacrificed at 8 h following mitogen dosing. The levels of TNF-α, IL-6, and IFN-γ and the activities of ALT and AST in the mouse serum were measured. This preliminary experiment allowed comparing the activity of the studied PDE inhibitors in this AIH model and helped to select the doses of GRMS-55 for a subsequent pharmacodynamic study. In the final pharmacodynamic experiment, GRMS-55 was administered at two dose levels (50 and 100 mg·kg^−1) followed by ConA administration at a dose of 20 mg·kg^−1. Animals were sacrificed at various time points post-ConA dosing (1, 2, 4, 8 and 24 h). The levels of TNF-α, IL-1β, IL-4, IL-6, IL-10, IL-12, IL-17A, and IFN-γ were measured using a multiplex Luminex assay. In addition, the activities of ALT and AST in the mouse serum were assessed. The concentration–time profiles of the selected biomarkers obtained in this experiment combined with the results of pharmacokinetic analysis allowed the development of a semi-mechanistic PK/PD/disease progression model and the investigation of concentration–effect relationships of GRMS-55.
The serum samples from the preliminary pharmacological study were analyzed using ELISA tests according to the protocols provided by the manufacturers. The TNF-α concentrations were measured using the Mouse TNF-α Quantikine ELISA Kit (R&D Systems, Minneapolis, MN, USA), while the concentrations of IL-6 and IFN-gamma were quantified by ELISA kits manufactured by Cloud-Clone Corp. (Houston, TX, USA). The absorbance of samples was measured on a POLARstar Omega multi-mode microplate reader (BMG LABTECH, Ortenberg, Germany) set at 450 nm wavelength. TNF-α, IL-1β, IL-6, IL-4, IL-10, IL-12, IL-17A, and IFN-γ serum levels in samples from pharmacodynamic experiment were determined by a premixed Magnetic Luminex Assay (R&D Systems, Inc., Minneapolis, MN, USA) according to the manufacturer’s protocol. Serum AST and ALT activities were quantified on a chemistry analyzer BS-800 (Shenzhen Mindray Bio-medical Electronics Co., Ltd., Shenzhen, China).

[2] = system: PDE4B; conditions: in vitro assay; read-out: IC50 PDE4B; cited from earlier work
[3] = system: PDE7A; conditions: in vitro assay; read-out: IC50 PDE7A; cited from earlier work
[4] = system: TNF-α production; design: method as in PMID 31899535; conditions: rat lipopolysaccharide-induced endotoxemia, PK/PD model; cited from earlier work
[5] = system: paw edema in collagen-induced arthritis; design: method as in PMID 31899535; conditions: rats with collagen-induced arthritis, PK/PD arthritis progression model; cited from earlier work
[6] = 8 h after ConA 20 mg/kg IV, IP pretreatment: rolipram 10, BRL-50481 50, GRMS-55 50 mg/kg, vs vehicle control

Cc1ccc([N+](=O)[O-])cc1S(=O)(=O)N(C)C [BRL-50481]
effect on activities of transaminases ([1]; 50 mg/kg IP, 8 h after ConA): reduced
effect on serum IFN-γ concentration [1, 6]: decreased
effect on serum IL-6 concentration [1, 6]: no effect
effect on serum TNF-α concentration [1, 6]: decreased
IC50 [2]: > 200 µM
IC50 [3]: 2100 nM

COc1ccc(C2CNC(=O)C2)cc1OC1CCCC1 (stereo not shown) [Rolipram]
IC50, suppression of TNF-α production [4]: 0.36 mg/L
decrease of IFN-γ level compared to control group ([1]; 10 mg/kg IP, 8 h after ConA): approximately 5.0 times
decrease of IL-6 level compared to control group ([1]; 10 mg/kg IP, 8 h after ConA): ~3.8 times
reduction of ALT activity compared to vehicle-treated control group ([1]; 10 mg/kg IP, 8 h after ConA): approximately 18.2 times
reduction of AST activity compared to vehicle-treated control group ([1]; 10 mg/kg IP, 8 h after ConA): ~6.1 times
IC50, decrease of paw edema [5]: 0.01 mg/L
IC50 [3]: > 200000 nM

Source: paper PMC8143339, “PK/PD Modeling of the PDE7 Inhibitor—GRMS-55 in a Mouse Model of Autoimmune Hepatitis” (Pharmaceutics, 2021)
